Experimental data taken from PMC12351382, “Fibrinography and thrombography (thrombodynamics-4D) in atrial fibrillation assessment of direct oral anticoagulants in geriatrics patients aged 80 years and older receiving direct oral anticoagulant therapy” (Research and Practice in Thrombosis and Haemostasis, 2025).

Legend:
fibrin clot formation [1] = experiment: Thrombodynamics-4D fibrinography in plasma samples from ADAGE patients on DOACs; format: in vivo, human
Source text: (§1) ADAGE is an academic, prospective, observational multicenter study (NCT 02464488; for details, see Foulon-Pinto et al.). We recruited hospitalized patients from the university hospital’s geriatric department (Assistance Publique-Hôpitaux de Paris, Paris, France). […] The DOAC dose regimen was at the discretion of the physician. Exclusion criteria included any acute, unstable comorbid condition or an estimated life expectancy of a few weeks. Sampling (see below) and last DOAC intake times were recorded on a standardized request form. Sampling time points were at the discretion of the physicians over a period of 20 days following inclusion. Time points were classified according to the time elapsed from the last oral intake (T, hours) for patients receiving rivaroxaban. T1 to T4 corresponded to peak time (Tmax), and T20 to T24 corresponded to trough (Tmin). […] Physicians prospectively collected demographic, clinical, and laboratory data (including creatinine clearance [CrCl] calculated with the Cockcroft–Gault formula). The study was approved by the institutionnel Ethics Committee (Comité consultatif de protection des personnes pour la recherche biomédicale–Île-de-France-6–number 15.074bis). All participants gave written informed consent to participate in the study. Only patients for whom remaining plasma aliquots were available were included in the present study.
(§2) Tubes were sent to each centre’s laboratory within 2 hours after sampling and immediately double-centrifuged for 15 minutes at 2000 × g at 15 to 22 °C to obtain platelet-poor plasma. Plasma samples (500 μL aliquots) were stored at −80 °C prior to shipment on dry ice for central analysis (Haematology Laboratory, Hôpital Lariboisière). Plasma samples were thawed for 3 to 5 minutes in a 37 °C water bath just before testing.
(§3) The TD-4D assay was performed centrally using the Thrombodynamics analyzer system (Hemacore, Diapharma) with the TD-4D PLS dedicated kit (Hemacore, Diapharma). The system simultaneously measures spatiotemporal parameters of fibrin clot formation (fibrinography) and TG process (thrombography) in a thin layer of unstirred plasma. Briefly, 120 μL of platelet-poor plasma is added to a microcuvette containing corn trypsin inhibitor to prevent contribution of contact phase activation, then 5 μL of phospholipid solution (manufacturer’s reagent) is added. After incubation for 15 minutes at 37 °C in the Thrombodynamics device, the mixture is transferred to a second microcuvette containing calcium ions, and then immediately transferred to the measurement cuvette. Finally, the activator insert, whose surface is coated with immobilized tissue factor (100 pmol/m^2), is then transferred to the cuvette. The process of fibrin clot formation is recorded in a time-lapse video-microscopy mode using a dark-field light scattering method. Simultaneously, the system monitors TG by fluorimetry, based on the ability of thrombin to cleave a fluorogenic substrate, 7-amino-4-methylcoumarin (AMC) bound to a short amino acid sequence (Arg-Gly-Gly). The rate of AMC formation is proportional to local thrombin concentration. The microcuvette is maintained at 37 °C and is illuminated with red (625 nm) or ultra-violet (365 nm) light emitting diodes. Clot growth is detected with red light scattering, while AMC fluorescence is detected with UV. Scattered red light and fluorescence passing through the macro lens are recorded by a charge-coupled device system. Images under red and blue light are acquired once per minute. The whole analysis lasts 1 hour. The Thrombodynamics software (Hemacore, Diapharma) calculates parameters of spatiotemporal dynamics of fibrin clot formation and TG [40, 46]. […]

thrombin generation [2] = experiment: Thrombodynamics-4D thrombography in plasma samples from ADAGE patients on DOACs; format: in vivo, human; settings: for ETP (endogenous thrombin potential, ETP_ATG), median (IQR) / ETP (endogenous thrombin potential, ETP_ATG), range / Thrombin peak height (Cmax_ATG), median (IQR) / Thrombin peak height (Cmax_ATG), range / Thrombography Tlag (Lag_ATG), median (IQR) / Thrombography Tlag (Lag_ATG), range / Time to peak (Tmax_ATG), median (IQR) / Time to peak (Tmax_ATG), range: ADAGE patients, reduced dose (regimens as E1)
Source text: as §1, §2, §3

thrombin generation [3] = experiment: Thrombodynamics-4D thrombography in pooled normal plasma (Cryocheck) spiked with DOACs; format: biochemical, human
Description: (§4) Frozen pooled normal plasma samples (Cryocheck-Cryopep) were spiked with increasing concentrations of DOACs (0-450 ng/mL), as previously described. […] were kindly provided by Bristol Myers Squibb/Pfizer, Bayer Healthcare, and Boehringer Ingelheim, respectively.
as §3, with “minute.” for “minute. The whole analysis lasts 1 hour. The Thrombodynamics software (Hemacore, Diapharma) calculates parameters of spatiotemporal dynamics of fibrin clot formation and TG [40, 46].”
(§5) The following fibrinography parameters were recorded (see Supplementary Table 1): (i) lag time (Tlag, minutes); (ii) initial rate of clot growth (Vi, μm/min); (iii) rate of clot growth (V, μm/min); (iv) clot size (CS, μm) measured at 30 minutes; (v) clot density (D, arbitrary units); (vi) time to spontaneous clotting (Tsp, minutes). The following thrombography parameters (at the near-activator area) were recorded (see Supplementary Table 1): (i) Tlag (minutes); (ii) time to thrombin peak (minutes); (iii) maximal thrombin concentration (ie, thrombin peak height, Cmax_ATG, AU/L); (iv) endogenous thrombin potential (ETP_ATG, AU⋅min/L); (v) stationary amplitude of moving peak of thrombin (Ast, AU/L); (vi) rate of thrombin peak propagation (μm/min; see Supplementary Videos 1–3).

[4] = Plasma DOAC concentration in ADAGE patients (chromogenic anti-FXa assay for rivaroxaban and apixaban; anti-FIIa Hemoclot assay for dabigatran); format: in vivo, human; settings: for DOAC concentration, median (IQR): ADAGE patients ≥80 y, reduced dose: rivaroxaban 15 mg once daily, apixaban 2.5 mg twice daily, dabigatran 110 mg twice daily; for DOAC concentration, range: ADAGE patients, reduced dose (regimens as E1)
Source text: as §1, §2
Dedicated calibrations and controls were used. The lower limit of quantification was 20 ng/mL for the 3 assays.

fibrin clot formation [5] = experiment: Thrombodynamics-4D fibrinography in pooled normal plasma (Cryocheck) spiked with DOACs; format: biochemical, human; settings: 0 to 1000 nM, mainly at low DOAC concentrations
Description: as §4
The TD-4D assay was performed centrally using the Thrombodynamics analyzer system (Hemacore, Diapharma) with the TD-4D PLS dedicated kit (Hemacore, Diapharma). The system simultaneously measures spatiotemporal parameters of fibrin clot formation (fibrinography) and TG process (thrombography) in a thin layer of unstirred plasma. Briefly, 120 μL of platelet-poor plasma is added to a microcuvette containing corn trypsin inhibitor to prevent contribution of contact phase activation, then 5 μL of phospholipid solution (manufacturer’s reagent) is added. […] The process of fibrin clot formation is recorded in a time-lapse video-microscopy mode using a dark-field light scattering method. […] Clot growth is detected with red light scattering, while AMC fluorescence is detected with UV. Scattered red light and fluorescence passing through the macro lens are recorded by a charge-coupled device system. […]
as §5

[6] = Tmax (peak), ADAGE patients, reduced dose (regimens as E1)
[7] = Tmin (trough), ADAGE patients, reduced dose (regimens as E1)
[8] = all ADAGE patient samples, Spearman
[9] = univariate analysis, Tmax, line marked Halving
[10] = univariate analysis, Tmin, line marked Halving
[11] = all ADAGE patient samples, any time point and dose

## [H]/N=C(/N)c1ccc(NCc2nc3cc(C(=O)N(CCC(=O)O)c4ccccn4)ccc3n2C)cc1 [Dabigatran]
Fibrin clot formation [1]; [6]
  CS (clot size at 30 minutes), median (IQR): 1436 (1332-1583) μm
  CS (clot size at 30 minutes), range: 1273-2125 μm
  D (clot density), median (IQR): 28,810 (27,570-29,170) a.u.
  D (clot density), range: 22,740-29,360 a.u.
  Fibrinography Tlag (lag time), median (IQR): 1.3 (1.2-2.0) min
  Fibrinography Tlag (lag time), range: 1.0 to 3.9 min
  Initial rate of clot growth (Vi), median (IQR): 60.9 (57.8-65.6) μm/min
  Initial rate of clot growth (Vi), range: 54.5-74.4 μm/min
  Time to Tsp (spontaneous clotting), range: 9.8 to 58.5 min
Fibrin clot formation [1]; [7]
  CS (clot size at 30 minutes), median (IQR): 1707 (1634-1904) μm
  CS (clot size at 30 minutes), range: 1612-2205 μm
  D (clot density), median (IQR): 32,220 (30,160-36,290) a.u.
  D (clot density), range: 26,190-39,810 a.u.
  Fibrinography Tlag (lag time), median (IQR): 1.0 (0.9-1.1) min
  Fibrinography Tlag (lag time), range: 0.8 to 1.3 min
  Initial rate of clot growth (Vi), median (IQR): 70.3 (66.9-75.1) μm/min
  Initial rate of clot growth (Vi), range: 57.5-79.5 μm/min
  Time to Tsp (spontaneous clotting), median (IQR): 13.7 (11.0-22.2) min
  Time to Tsp (spontaneous clotting), range: 7.4 to 54.6 min
Fibrin clot formation [1]; all ADAGE patient samples
  Change of CS (clot size) with increasing concentrations: decreased
Fibrin clot formation [1]; [8]
  Association of D (clot density) with DOAC concentration: significantly associated
  Relationship between time to spontaneous clot formation (Tsp) and DOAC levels: significant association
Fibrin clot formation [1]; [9]
  Effect of DOAC concentration at Tmax (βC.pic) on fibrinography initial velocity of clot formation: ≈ 0.01723%
Fibrin clot formation [1]; [10]
  Effect of DOAC concentration at Tmin (βC.res) on fibrinography initial velocity of clot formation: ≈ 0.1281%
Thrombin generation [2]; Tmax (peak)
  ETP (endogenous thrombin potential, ETP_ATG), median (IQR): 1036 (724-1501) AU⋅min/L
  ETP (endogenous thrombin potential, ETP_ATG), range: 80-2078 AU⋅min/L
  Thrombin peak height (Cmax_ATG), median (IQR): 193 (98-243) AU/L
  Thrombin peak height (Cmax_ATG), range: 8-354 AU/L
  Thrombography Tlag (Lag_ATG), median (IQR): 0.6 (0.4-0.8) min
  Thrombography Tlag (Lag_ATG), range: 0.2 to 1.5 min
  Time to peak (Tmax_ATG), median (IQR): 2.6 (2.1-3.1) min
  Time to peak (Tmax_ATG), range: 1.6 to 4.6 min
Thrombin generation [2]; Tmin (trough)
  ETP (endogenous thrombin potential, ETP_ATG), median (IQR): 1741 (1602-2290) AU⋅min/L
  ETP (endogenous thrombin potential, ETP_ATG), range: 1111-2715 AU⋅min/L
  Thrombin peak height (Cmax_ATG), median (IQR): 349 (279-380) AU/L
  Thrombin peak height (Cmax_ATG), range: 168-499 AU/L
  Thrombography Tlag (Lag_ATG), median (IQR): 0.2 (0.1-0.2) min
  Thrombography Tlag (Lag_ATG), range: 0.1 to 0.5 min
  Time to peak (Tmax_ATG), median (IQR): 1.85 (1.6-2.1) min
  Time to peak (Tmax_ATG), range: 1.6 to 2.1 min
Thrombin generation [2]; all ADAGE patient samples
  Change of ETP_ATG with increasing DOAC plasma concentrations: decreased
Thrombin generation [2]; [9]
  Effect of DOAC concentration at Tmax (βC.pic) on thrombography peak height (PH): ≈ 0.4838%
Thrombin generation [2]; [10]
  Effect of DOAC concentration at Tmin (βC.res) on thrombography peak height (PH): ≈ 0.4447%
Thrombin generation [3]
  Change of Ast (stationary amplitude of thrombin moving peak) with increasing concentrations: decreased
  Effect on Cmax_ATG, ETP_ATG and Ast compared with the other DOACs: more pronounced effect
[4]; Tmax (peak)
  DOAC concentration, median (IQR): 171 (123-280) ng/mL
  DOAC concentration, range: 79 to 665 ng/mL
[4]; Tmin (trough)
  DOAC concentration, median (IQR): 39 (20-70) ng/mL
  DOAC concentration, range: 20 to 106 ng/mL
[4]; [11]
  DOAC plasma concentration, lower end of range: < 20 ng/mL
  DOAC plasma concentration, upper end of range: 665 ng/mL
Fibrin clot formation [5]
  Samples in which spontaneous clotting occurred: 33%
